Results published in article PMC7347136 (PLoS ONE, 2020).

Legend:
Assay in all cases: Carna kinase panel screen
Type in all cases: biochemical
Details in all cases: read-out: % Inhibition ± SD
[1] = target: T1, p38g (Homo sapiens, UniProt P53778)
T1 construct: purchased Carna Biosciences
Procedure: (§1) IC50 values were determined from a 10-point concentration curve using ATP concentrations approximating Km values. […] The percentage inhibition of each test solution was calculated, which allowed the IC50 value to be determined from concentration versus percentage inhibition curves by fitting to a four parameter logistic curve.

[2] = target: T2, BMX (Homo sapiens, UniProt P51813)
T2 construct: purchased Carna Biosciences
Procedure: as §1

[3] = target: T3, CK2a1 (Homo sapiens, UniProt P68400)
T3 construct: purchased Carna Biosciences
Procedure: as §1

[4] = target: T4, DYRK1A (Homo sapiens, UniProt Q13627)
T4 construct: purchased Carna Biosciences
Procedure: as §1

[5] = target: T5, MLK3 (Homo sapiens, UniProt Q16584)
T5 construct: purchased Carna Biosciences
Procedure: as §1

[6] = target: T6, RON (Homo sapiens, UniProt Q04912)
T6 construct: purchased Carna Biosciences
Procedure: as §1

[7] = target: T7, CLK2 (Homo sapiens, UniProt P49760)
T7 construct: purchased Carna Biosciences
Procedure: as §1

[8] = target: T8, PEK (Homo sapiens, UniProt Q9NZJ5)
T8 construct: purchased Carna Biosciences
Procedure: as §1

[9] = target: T9, RSK4 (Homo sapiens, UniProt Q9UK32)
T9 construct: purchased Carna Biosciences
Procedure: as §1

[10] = target: T10, PAK2 (Homo sapiens, UniProt Q13177)
T10 construct: purchased Carna Biosciences
Procedure: as §1

[11] = target: T11, BRSK2 (Homo sapiens, UniProt Q8IWQ3)
T11 construct: purchased Carna Biosciences
Procedure: as §1

[12] = target: T12, TRKC (Homo sapiens, UniProt Q16288)
T12 construct: purchased Carna Biosciences
Procedure: as §1

[13] = target: T13, BLK (Homo sapiens, UniProt P51451)
T13 construct: purchased Carna Biosciences
Procedure: as §1

[14] = target: T14, DDR1 (Homo sapiens, UniProt Q08345)
T14 construct: purchased Carna Biosciences
Procedure: as §1

[15] = target: T15, EphB2 (Homo sapiens, UniProt P29323)
T15 construct: purchased Carna Biosciences
Procedure: as §1

[16] = target: T16, MAP2K7 (Homo sapiens, UniProt O14733)
T16 construct: purchased Carna Biosciences
Procedure: as §1

[17] = target: T17, CRIK (Homo sapiens, UniProt O14578)
T17 construct: purchased Carna Biosciences
T17 sequence (O14578 whole entry): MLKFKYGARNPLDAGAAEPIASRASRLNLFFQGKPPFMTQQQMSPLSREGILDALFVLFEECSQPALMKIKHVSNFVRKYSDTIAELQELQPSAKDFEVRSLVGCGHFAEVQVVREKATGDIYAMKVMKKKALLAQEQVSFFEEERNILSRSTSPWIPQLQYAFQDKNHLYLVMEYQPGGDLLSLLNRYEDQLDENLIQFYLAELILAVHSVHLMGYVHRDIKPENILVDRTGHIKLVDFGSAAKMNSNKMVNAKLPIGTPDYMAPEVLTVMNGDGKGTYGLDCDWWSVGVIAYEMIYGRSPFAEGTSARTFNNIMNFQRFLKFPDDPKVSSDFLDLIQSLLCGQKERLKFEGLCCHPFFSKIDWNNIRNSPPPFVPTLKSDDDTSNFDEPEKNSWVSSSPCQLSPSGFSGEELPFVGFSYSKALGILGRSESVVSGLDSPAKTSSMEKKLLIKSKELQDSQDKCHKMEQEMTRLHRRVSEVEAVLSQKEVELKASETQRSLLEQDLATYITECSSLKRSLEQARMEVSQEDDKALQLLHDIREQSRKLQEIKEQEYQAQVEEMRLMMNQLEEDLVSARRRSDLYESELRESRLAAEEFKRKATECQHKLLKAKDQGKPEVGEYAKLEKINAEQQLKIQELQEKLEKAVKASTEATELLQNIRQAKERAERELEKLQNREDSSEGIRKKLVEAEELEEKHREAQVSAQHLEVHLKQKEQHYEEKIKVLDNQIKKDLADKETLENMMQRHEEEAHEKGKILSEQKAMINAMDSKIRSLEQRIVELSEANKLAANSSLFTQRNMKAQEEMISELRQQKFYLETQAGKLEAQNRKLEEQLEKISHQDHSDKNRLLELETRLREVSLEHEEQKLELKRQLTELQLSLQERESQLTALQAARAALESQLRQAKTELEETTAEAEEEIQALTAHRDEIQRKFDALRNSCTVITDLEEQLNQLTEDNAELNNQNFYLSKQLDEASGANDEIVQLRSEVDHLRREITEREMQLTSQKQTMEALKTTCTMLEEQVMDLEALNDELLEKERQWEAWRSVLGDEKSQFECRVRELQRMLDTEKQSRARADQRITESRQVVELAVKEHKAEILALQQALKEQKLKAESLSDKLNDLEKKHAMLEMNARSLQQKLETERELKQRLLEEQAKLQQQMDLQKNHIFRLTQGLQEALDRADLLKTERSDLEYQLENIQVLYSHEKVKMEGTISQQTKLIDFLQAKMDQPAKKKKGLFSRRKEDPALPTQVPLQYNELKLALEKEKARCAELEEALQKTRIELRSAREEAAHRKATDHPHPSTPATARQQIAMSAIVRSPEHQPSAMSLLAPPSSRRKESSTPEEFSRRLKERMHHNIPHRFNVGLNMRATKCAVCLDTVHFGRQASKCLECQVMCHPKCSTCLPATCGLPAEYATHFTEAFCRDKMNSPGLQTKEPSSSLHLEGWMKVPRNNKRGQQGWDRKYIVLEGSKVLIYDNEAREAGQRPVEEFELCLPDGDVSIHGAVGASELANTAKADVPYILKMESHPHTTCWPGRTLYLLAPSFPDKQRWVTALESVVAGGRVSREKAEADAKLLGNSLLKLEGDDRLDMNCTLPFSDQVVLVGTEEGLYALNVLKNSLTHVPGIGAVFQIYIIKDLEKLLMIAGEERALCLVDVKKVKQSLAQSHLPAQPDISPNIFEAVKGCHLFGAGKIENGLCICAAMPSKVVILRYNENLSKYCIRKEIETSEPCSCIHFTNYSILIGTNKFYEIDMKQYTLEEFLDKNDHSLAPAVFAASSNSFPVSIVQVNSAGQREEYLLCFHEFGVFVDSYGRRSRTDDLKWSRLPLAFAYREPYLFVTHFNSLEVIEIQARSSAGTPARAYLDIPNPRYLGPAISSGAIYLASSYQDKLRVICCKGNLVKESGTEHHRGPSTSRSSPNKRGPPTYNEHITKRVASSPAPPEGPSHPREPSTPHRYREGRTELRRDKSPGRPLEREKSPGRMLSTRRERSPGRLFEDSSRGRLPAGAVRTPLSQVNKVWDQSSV
Procedure: as §1

[18] = target: T18, FGFR4 (Homo sapiens, UniProt P22455)
T18 construct: purchased Carna Biosciences
Procedure: as §1

[19] = target: T19, FLT3 (Homo sapiens, UniProt P36888)
T19 construct: purchased Carna Biosciences
Procedure: as §1

[20] = target: T20, MLK2 (Homo sapiens, UniProt Q02779)
T20 construct: purchased Carna Biosciences
Procedure: as §1

[21] = target: T21, Erk5 (Homo sapiens, UniProt Q13164)
T21 construct: purchased Carna Biosciences
Procedure: as §1

[22] = target: T22, PASK (Homo sapiens, UniProt Q96RG2)
T22 construct: purchased Carna Biosciences
T22 sequence (Q96RG2 whole entry): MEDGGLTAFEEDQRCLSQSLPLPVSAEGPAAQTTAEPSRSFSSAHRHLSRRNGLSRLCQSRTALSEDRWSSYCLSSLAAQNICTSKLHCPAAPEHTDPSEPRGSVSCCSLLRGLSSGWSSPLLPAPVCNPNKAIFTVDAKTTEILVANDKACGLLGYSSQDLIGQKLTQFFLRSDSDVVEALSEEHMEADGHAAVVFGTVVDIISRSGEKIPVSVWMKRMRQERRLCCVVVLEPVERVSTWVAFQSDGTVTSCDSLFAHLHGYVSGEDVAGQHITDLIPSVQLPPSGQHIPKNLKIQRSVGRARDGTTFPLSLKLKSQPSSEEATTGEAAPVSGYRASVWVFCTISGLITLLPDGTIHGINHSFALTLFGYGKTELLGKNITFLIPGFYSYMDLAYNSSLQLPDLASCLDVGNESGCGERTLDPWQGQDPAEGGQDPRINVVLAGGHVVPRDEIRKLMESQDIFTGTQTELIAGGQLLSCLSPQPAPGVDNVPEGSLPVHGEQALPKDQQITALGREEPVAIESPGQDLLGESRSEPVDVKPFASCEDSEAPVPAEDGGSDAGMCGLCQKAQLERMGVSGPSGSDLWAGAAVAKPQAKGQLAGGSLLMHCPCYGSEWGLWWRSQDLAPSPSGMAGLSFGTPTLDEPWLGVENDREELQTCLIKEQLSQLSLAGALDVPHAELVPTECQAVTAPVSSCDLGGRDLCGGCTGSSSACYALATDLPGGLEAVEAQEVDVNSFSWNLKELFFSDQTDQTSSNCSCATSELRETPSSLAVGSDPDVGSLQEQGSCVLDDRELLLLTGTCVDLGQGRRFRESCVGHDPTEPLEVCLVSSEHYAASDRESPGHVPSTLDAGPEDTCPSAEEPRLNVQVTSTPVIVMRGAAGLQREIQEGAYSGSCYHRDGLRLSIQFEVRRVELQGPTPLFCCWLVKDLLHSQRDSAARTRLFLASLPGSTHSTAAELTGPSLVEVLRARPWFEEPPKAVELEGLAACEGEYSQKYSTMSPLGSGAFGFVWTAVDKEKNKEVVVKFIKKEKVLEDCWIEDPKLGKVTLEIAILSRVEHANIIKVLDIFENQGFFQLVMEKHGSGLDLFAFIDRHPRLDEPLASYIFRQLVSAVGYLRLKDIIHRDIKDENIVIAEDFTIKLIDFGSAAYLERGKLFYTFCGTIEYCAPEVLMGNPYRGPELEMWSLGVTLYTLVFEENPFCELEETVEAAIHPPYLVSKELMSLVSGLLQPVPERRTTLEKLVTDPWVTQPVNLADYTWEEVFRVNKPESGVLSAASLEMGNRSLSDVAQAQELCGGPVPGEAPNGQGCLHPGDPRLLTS
Procedure: as §1

[23] = target: T23, DYRK3 (Homo sapiens, UniProt O43781)
T23 construct: purchased Carna Biosciences
Procedure: as §1

[24] = target: T24, IKKa (Homo sapiens, UniProt O15111)
T24 construct: purchased Carna Biosciences
Procedure: as §1

[25] = target: T25, p38b (Homo sapiens, UniProt Q15759)
T25 construct: purchased Carna Biosciences
Procedure: as §1

[26] = target: T26, JAK3 (Homo sapiens, UniProt P52333)
T26 construct: purchased Carna Biosciences
Procedure: as §1

[27] = target: T27, IKKe (Homo sapiens, UniProt Q14164)
T27 construct: purchased Carna Biosciences
Procedure: as §1

[28] = target: T28, MNK1 (Homo sapiens, UniProt Q9BUB5)
T28 construct: purchased Carna Biosciences
Procedure: as §1

[29] = target: T29, FGFR1 (Homo sapiens, UniProt P11362)
T29 construct: purchased Carna Biosciences
Procedure: as §1

[30] = target: T30, BMPR1A (Homo sapiens, UniProt P36894)
T30 construct: purchased Carna Biosciences
Procedure: as §1

[31] = target: T31, FMS (Homo sapiens, UniProt P07333)
T31 construct: purchased Carna Biosciences
Procedure: as §1

[32] = target: T32, PGK (Homo sapiens, UniProt Q13976)
T32 construct: purchased Carna Biosciences
Procedure: as §1

[33] = target: T33, PKCi (Homo sapiens, UniProt P41743)
T33 construct: purchased Carna Biosciences
Procedure: as §1

[34] = target: T34, EphA7 (Homo sapiens, UniProt Q15375)
T34 construct: purchased Carna Biosciences
Procedure: as §1

[35] = target: T35, HER2 (Homo sapiens, UniProt P04626)
T35 construct: purchased Carna Biosciences
Procedure: as §1

[36] = target: T36, FGFR2 (Homo sapiens, UniProt P21802)
T36 construct: purchased Carna Biosciences
Procedure: as §1

[37] = target: T37, BRSK1 (Homo sapiens, UniProt Q8TDC3)
T37 construct: purchased Carna Biosciences
Procedure: as §1

[38] = target: T38, PLK2 (Homo sapiens, UniProt Q9NYY3)
T38 construct: purchased Carna Biosciences
Procedure: as §1

[39] = target: T39, RSK3 (Homo sapiens, UniProt Q15349)
T39 construct: purchased Carna Biosciences
T39 sequence (Q15349 whole entry): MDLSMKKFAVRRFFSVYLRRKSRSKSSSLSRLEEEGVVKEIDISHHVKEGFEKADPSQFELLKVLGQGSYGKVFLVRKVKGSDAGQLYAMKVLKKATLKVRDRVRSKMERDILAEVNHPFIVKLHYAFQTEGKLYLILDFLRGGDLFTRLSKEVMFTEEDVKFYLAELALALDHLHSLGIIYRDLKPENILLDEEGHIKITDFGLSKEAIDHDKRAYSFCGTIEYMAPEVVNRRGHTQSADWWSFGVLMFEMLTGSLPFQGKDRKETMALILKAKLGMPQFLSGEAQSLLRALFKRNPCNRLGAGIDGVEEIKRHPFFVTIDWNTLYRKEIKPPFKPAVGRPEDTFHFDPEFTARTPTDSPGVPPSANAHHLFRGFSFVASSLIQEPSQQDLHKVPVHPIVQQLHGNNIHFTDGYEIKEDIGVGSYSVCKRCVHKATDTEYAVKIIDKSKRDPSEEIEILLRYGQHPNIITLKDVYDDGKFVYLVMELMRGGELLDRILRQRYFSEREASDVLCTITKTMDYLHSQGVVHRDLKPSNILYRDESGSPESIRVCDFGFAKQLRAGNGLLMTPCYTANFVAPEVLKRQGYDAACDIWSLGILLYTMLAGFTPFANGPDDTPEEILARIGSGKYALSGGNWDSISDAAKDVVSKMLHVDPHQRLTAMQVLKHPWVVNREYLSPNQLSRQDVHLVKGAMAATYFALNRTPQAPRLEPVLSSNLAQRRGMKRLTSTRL
Procedure: as §1

[40] = target: T40, IRR (Homo sapiens, UniProt P14616)
T40 construct: purchased Carna Biosciences
Procedure: as §1

[41] = target: T41, YES (Homo sapiens, UniProt P07947)
T41 construct: purchased Carna Biosciences
Procedure: as §1

[42] = target: T42, MLK1 (Homo sapiens, UniProt P80192)
T42 construct: purchased Carna Biosciences
Procedure: as §1

[43] = target: T43, DLK (Homo sapiens, UniProt Q12852)
T43 construct: purchased Carna Biosciences
Procedure: as §1

[44] = target: T44, EphA1 (Homo sapiens, UniProt P21709)
T44 construct: purchased Carna Biosciences
T44 sequence (P21709 26-976): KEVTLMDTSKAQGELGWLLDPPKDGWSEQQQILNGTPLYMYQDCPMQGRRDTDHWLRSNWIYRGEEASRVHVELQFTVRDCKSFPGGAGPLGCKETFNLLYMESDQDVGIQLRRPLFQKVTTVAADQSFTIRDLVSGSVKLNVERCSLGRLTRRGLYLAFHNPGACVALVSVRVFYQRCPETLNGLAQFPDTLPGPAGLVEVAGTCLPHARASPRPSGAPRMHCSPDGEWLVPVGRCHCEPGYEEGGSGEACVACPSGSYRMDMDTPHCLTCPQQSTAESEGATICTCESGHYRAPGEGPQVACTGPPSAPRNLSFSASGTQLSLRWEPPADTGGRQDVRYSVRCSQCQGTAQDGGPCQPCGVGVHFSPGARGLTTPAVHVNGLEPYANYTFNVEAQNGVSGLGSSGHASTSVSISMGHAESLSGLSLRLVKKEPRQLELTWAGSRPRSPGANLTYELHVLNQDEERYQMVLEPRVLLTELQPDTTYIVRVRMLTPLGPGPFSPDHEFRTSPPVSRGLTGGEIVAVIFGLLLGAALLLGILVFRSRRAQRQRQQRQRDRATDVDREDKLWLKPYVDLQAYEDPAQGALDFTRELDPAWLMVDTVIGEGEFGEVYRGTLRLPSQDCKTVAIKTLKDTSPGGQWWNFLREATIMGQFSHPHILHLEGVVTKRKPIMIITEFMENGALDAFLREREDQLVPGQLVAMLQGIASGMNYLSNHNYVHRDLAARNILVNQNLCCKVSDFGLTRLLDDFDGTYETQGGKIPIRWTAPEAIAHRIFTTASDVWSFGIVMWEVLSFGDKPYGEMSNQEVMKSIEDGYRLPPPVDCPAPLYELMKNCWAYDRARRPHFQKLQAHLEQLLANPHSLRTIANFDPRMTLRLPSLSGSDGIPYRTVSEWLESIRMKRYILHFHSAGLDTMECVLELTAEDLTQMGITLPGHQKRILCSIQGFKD
Procedure: as §1

## CC[C@H](Nc1nc(NCc2cnc(C)cc2C)c2ncn(C(C)C)c2n1)[C@@H](C)O [Fadraciclib, 2-pentanol, 3-[[6-[[(4,6-dimethyl-3-pyridinyl)methyl]amino]-9-(1-methylethyl)-9Hpurin-2-yl]amino]-, (2R,3S)]
[1]
  inhibition at 1 µM: -0.6%
[2]
  inhibition at 1 µM: 6.6 ± 0.3%
[3]
  inhibition at 1 µM: -22.8 ± 0.7%
[4]
  inhibition at 1 µM: 5.5 ± 0.7%
[5]
  inhibition at 1 µM: -4.9 ± 0.4%
[6]
  inhibition at 1 µM: 1.6 ± 0.1%
[7]
  inhibition at 1 µM: 87.8 ± 2%
[8]
  inhibition at 1 µM: 0.3%
[9]
  inhibition at 1 µM: 6 ± 0.2%
[10]
  inhibition at 1 µM: -2.9%
[11]
  inhibition at 1 µM: 1.1%
[12]
  inhibition at 1 µM: 7.2 ± 0.3%
[13]
  inhibition at 1 µM: -3.6%
[14]
  inhibition at 1 µM: -9.3 ± 0.1%
[15]
  inhibition at 1 µM: 5 ± 0.2%
[16]
  inhibition at 1 µM: -10.6 ± 0.6%
[17]
  inhibition at 1 µM: -1.2%
[18]
  inhibition at 1 µM: -14.8%
[19]
  inhibition at 1 µM: -8.7 ± 0.1%
[20]
  inhibition at 1 µM: 0.6%
[21]
  inhibition at 1 µM: 3.7 ± 0.1%
[22]
  inhibition at 1 µM: -0.4%
[23]
  inhibition at 1 µM: 0.9%
[24]
  inhibition at 1 µM: 0%
[25]
  inhibition at 1 µM: -19 ± 0.2%
[26]
  inhibition at 1 µM: -9.5%
[27]
  inhibition at 1 µM: 2.5 ± 0.1%
[28]
  inhibition at 1 µM: -13.1 ± 1.6%
[29]
  inhibition at 1 µM: 7.8%
[30]
  inhibition at 1 µM: 2.2%
[31]
  inhibition at 1 µM: -6.3 ± 0.1%
[32]
  inhibition at 1 µM: -21.7 ± 0.2%
[33]
  inhibition at 1 µM: -13.6 ± 0.5%
[34]
  inhibition at 1 µM: 6 ± 0.3%
[35]
  inhibition at 1 µM: -17.6 ± 1%
[36]
  inhibition at 1 µM: -17.6 ± 2.2%
[37]
  inhibition at 1 µM: -11.5 ± 0.1%
[38]
  inhibition at 1 µM: 1%
[39]
  inhibition at 1 µM: 7.7%
[40]
  inhibition at 1 µM: -5.5%
[41]
  inhibition at 1 µM: -7 ± 0.1%
[42]
  inhibition at 1 µM: -11.2 ± 0.1%
[43]
  inhibition at 1 µM: 0.8%
[44]
  inhibition at 1 µM: 5.1%
